These are literature values, as cited in patent US20240294879A1, “STEM CELL DIFFERENTIATION AND POLYMERS” (VERTEX PHARMACEUTICALS INCORPORATED, priority 2021, published 2024).

This series has as its target EZH2 (Homo sapiens, UniProt Q15910).

Sequence of EZH2 (Q15910 whole entry, species assumed): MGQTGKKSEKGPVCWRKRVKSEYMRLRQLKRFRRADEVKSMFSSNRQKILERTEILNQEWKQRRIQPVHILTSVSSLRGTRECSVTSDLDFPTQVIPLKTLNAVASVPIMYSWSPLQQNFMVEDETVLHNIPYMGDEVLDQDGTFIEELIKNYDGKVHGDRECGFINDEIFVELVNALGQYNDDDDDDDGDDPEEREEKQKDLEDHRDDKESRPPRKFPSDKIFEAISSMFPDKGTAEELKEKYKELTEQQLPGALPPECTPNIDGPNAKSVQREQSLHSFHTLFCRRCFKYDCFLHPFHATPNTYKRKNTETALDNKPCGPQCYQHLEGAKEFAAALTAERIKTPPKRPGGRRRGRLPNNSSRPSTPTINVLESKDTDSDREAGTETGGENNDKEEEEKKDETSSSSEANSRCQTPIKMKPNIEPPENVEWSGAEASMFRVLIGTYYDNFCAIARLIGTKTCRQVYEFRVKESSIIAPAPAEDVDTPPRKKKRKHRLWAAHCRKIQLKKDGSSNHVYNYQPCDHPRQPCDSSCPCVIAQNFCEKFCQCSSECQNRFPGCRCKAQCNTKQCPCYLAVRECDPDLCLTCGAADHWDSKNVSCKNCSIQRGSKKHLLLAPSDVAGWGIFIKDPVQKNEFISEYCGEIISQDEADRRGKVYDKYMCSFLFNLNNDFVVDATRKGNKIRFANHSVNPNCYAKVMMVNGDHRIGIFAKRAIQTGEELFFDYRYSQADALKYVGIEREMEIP
Sequence of EZH2 (O75530 whole entry partner, species assumed): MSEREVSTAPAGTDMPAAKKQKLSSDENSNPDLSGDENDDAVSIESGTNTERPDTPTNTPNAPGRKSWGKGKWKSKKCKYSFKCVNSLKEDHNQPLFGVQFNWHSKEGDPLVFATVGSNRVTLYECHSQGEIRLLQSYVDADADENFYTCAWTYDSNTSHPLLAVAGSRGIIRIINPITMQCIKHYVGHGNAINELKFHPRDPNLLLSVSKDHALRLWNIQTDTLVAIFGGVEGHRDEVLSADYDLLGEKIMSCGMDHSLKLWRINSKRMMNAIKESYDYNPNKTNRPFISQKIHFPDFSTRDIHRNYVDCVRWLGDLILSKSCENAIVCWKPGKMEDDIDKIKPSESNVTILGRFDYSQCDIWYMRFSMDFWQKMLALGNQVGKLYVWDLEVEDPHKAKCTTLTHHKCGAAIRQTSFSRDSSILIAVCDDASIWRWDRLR
Sequence of EZH2 (Q15022 whole entry partner, species assumed): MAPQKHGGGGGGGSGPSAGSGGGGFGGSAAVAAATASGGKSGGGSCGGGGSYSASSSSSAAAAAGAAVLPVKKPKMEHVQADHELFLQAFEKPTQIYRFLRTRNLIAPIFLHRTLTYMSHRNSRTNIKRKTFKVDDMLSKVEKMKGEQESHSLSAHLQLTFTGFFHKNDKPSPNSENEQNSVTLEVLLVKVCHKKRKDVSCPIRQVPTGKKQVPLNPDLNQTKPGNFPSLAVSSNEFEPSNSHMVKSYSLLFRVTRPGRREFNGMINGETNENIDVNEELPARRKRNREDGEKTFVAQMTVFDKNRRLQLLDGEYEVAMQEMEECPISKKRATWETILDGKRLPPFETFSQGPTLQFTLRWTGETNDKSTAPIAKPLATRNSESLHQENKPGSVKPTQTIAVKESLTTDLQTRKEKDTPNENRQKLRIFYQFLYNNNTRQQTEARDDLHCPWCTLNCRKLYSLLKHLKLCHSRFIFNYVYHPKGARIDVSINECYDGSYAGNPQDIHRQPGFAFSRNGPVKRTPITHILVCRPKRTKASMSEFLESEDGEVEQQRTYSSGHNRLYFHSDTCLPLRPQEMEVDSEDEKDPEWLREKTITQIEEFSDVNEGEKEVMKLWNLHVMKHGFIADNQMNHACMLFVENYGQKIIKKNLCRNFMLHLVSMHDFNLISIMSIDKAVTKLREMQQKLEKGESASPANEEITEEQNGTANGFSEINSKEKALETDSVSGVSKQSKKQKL

For the molecule `CC[C@H](C)n1cc(C)c2c(C(=O)NCc3c(C)cc(C)[nH]c3=O)cc(-c3ccc(N4CCNCC4)nc3)cc21` [GSK126], for the setting “EZH2 versus EZH1”, the “selectivity over EZH1” value is listed as 150 fold.
With `CCCc1cc(C)[nH]c(=O)c1CNC(=O)c1cc(-c2ccc(N3CCN(C(C)C)CC3)nc2)cc2c1cnn2C(C)C` [UNC1999], the “selectivity relative to GSK126” value (EZH2 inhibitor) is given as “less selective”.
